According to patent US20190380980A1, “A Method For Treating Peripheral Inflammatory Disease” (Dublin City University, priority 2015, published 2019):

Assays:
[1] = system: Bone marrow derived dendritic cells (BMDCs); assay: In vitro screening of oleamide and analogues: cytokine secretion by LPS-stimulated BMDCs; type: cell-based, Balb/c mice; details: for +LPS IL-12p40 / +LPS IL-12p70 / +LPS IL-23 / +LPS TNF-α: Table 3, BMDCs, 25 uM compound 1 hour prior to 100 ng/ml LPS, supernatants after 24 hours; for immunomodulatory effect: summary statement on the cytokine tables
Procedure: FIG. 2: In vitro results: Bone marrow dendritic cells (BMDCs) were cultured in vitro and plated at 1×10^6 cells per ml. The BMDCs were conditioned with 25 uM oleamide 1 hour prior to stimulation with 100 ng/ml LPS (E. coli serotype R515). After 24 hours, the supernatants were removed and analysed for cytokine levels of IL-12p40, IL-12p70, IL-23 and TNF-alpha using specific immunoassays. (n=9)
FIGS. 4(A) to 4(G): In vitro Results: Bone marrow dendritic cells (BMDCs) were cultured in vitro and plated at 1×10^6 cells/ml. The BMDCs were conditioned with oleamide or its family of analogues at a concentration of 25 uM 1 hour prior to stimulation with 100 ng/ml LPS (E. coli serotype R515). After 24 hours, the supernatants were removed and analysed for levels of IL-12p40, IL-12p70, IL-23 and TNF-alpha using specific immunoassays. (n=9)
(§1) FIG. 6: Bone marrow-derived dendritic cells (BMDCs) were cultured in vitro and plated at 1×10^6 cells/ml. The BMDCs were conditioned with analogues of oleamide (compounds 19.2, 20.1, 36.2, 37.1 or 39.1) at a concentration of 25 μM 1 hour prior to stimulation with 100 ng/ml LPS (E. coli serotype R515). After 24 hours, the supernatants were removed and analysed for levels of IL-12p40, IL-12p70, IL-23 and TNF-alpha using specific immunoassays. (n=9)
as §1, with “7:” for “6:”, “18.2, 21.2, 22.2, 23.2, 33.1” for “19.2, 20.1, 36.2, 37.1”, “34.1 in panel A and 35.1, 38.1, 50.2 in panel B)” for “39.1)”
The concentration of cytokines in cell supernatants was determined using ELISA Duoset kits from R&D Systems in accordance with the manufacturers' instructions. Briefly, 100 μl/well of capture antibody (diluted to the appropriate concentration in PBS) was added to an ELISA plate (Nunc) and incubated overnight at room temperature. Plates were then washed three times with Wash Buffer (PBS+0.05% Tween-20) and blocked by adding 300 μl of Blocking buffer (1% (w/v) BSA/PBS) for a minimum of 1 h at room temperature. The washing step was repeated and 100 μl of samples and standards (diluted to appropriate concentrations) were added per well, in triplicate. Plates were then incubated at 2-4° C. overnight. The next day, plates were washed again and 100 μl of the biotinylated detection antibody was added to each well and incubated for 2 hours at room temperature. 100 μl of Streptavidin-horseradish-peroxidase (R&D Systems) was then added to each well, following another wash step. Plates were incubated for 20 min at room temperature. After the last washing step, 100 μl of tetramethylbenzidine (BD Biosciences) was added to each well and plates were left in the dark for 20 minutes or until a blue colour developed. Colour development was stopped by adding 50 μl of 1M sulphuric acid (Sigma-Aldrich) to the wells. The optical density was determined at 450 nm, using a VersaMax™ microplate reader (Molecular Devices). For each set of samples, a standard curve was generated and the values of unknown samples were calculated from the standard curve.
Bone marrow derived dendritic cells (BMDCs) were cultured as follows:
(Day 1) Bone marrow cells were harvested from the femur and tibia of Balb/c female mice by flushing the bone with RPMI 1640 complete media [supplemented with 10% foetal calf serum and 2% Penicilin-Steptomycin (Life Technologies, Ireland)] using a 27 gauge needle attached to a 10 ml syringe. The bone marrow cells were collected into a 50-ml Falcon tube and centrifuged at 1200 RPM for 5 minutes. […]

[2] = system: BV2 murine microglial cells; details: lipopolysaccharide-stimulated neuronal microglia; cited from earlier work

SMILES	+LPS IL-12p40 [1]	+LPS IL-12p70 [1]	+LPS IL-23 [1]	+LPS TNF-α [1]	activation of p38, ERK, PI3-kinase/Akt, ROS accumulation and NF-κB activation [2]	pro-inflammatory mediators [2]	immunomodulatory effect [1]
CCCCCCCC/C=C\CCCCCCCC(=O)NCc1ccccc1 [Compound 18-2, N-benzyloleamide]	↑	↑	→	→			
CCCCCCCC/C=C\CCCCCCCC(=O)Nc1ccc(N(C)C)cc1 [Compound 19-2, N-(4-(dimethylamino)phenyl)oleamide]	→	→	→	→			
CCCCCCCC/C=C\CCCCCCCC(=O)Nc1ccc(N(CC)CC)cc1 [Compound 20-1, N-(4-(diethylamino)phenyl)oleamide]	→	↓	→	→			
CCCCCCCC/C=C\CCCCCCCC(=O)NCc1ccc(OC)cc1 [Compound 21-2, N-(4-methoxybenzyl) oleamide]	↑	↑	↓	→			
CCCCCCCC/C=C\CCCCCCCC(=O)NCc1cccc(OC)c1 [Compound 22-2, N-(3-methoxybenzyl) oleamide]	↑	↑	↓	→			
CCCCCCCC/C=C\CCCCCCCC(=O)NCc1ccccc1OC [Compound 23-2, N-(2-methoxybenzyl) oleamide]	↑	→	↓	→			
CCCCCCCC/C=C\CCCCCCCC(=O)NCc1ccc(C(F)(F)F)cc1 [Compound 33-1, N-(4-(trifluoromethyl)benzyl)oleamide]	↑	↑	→	→			
CCCCCCCC/C=C\CCCCCCCC(=O)NCc1cccc(C(F)(F)F)c1 [Compound 34-1, N-(3-(trifluoromethyl)benzyl)oleamide]	↑	→	↓	→			
CCCCCCCC/C=C\CCCCCCCC(=O)NCc1ccccc1C(F)(F)F [Compound 35-1, N-(2-(trifluoromethyl)benzyl)oleamide]	→	→	↓	→			
CCCCCCCC/C=C\CCCCCCCC(=O)Nc1ccc2ccccc2n1 [Compound 36-2, N-(quinolin-2-yl) oleamide]	↓	↓	↓	↓			
CCCCCCCC/C=C\CCCCCCCC(=O)Nc1ccccn1 [Compound 37-1, N-(pyridin-2-yl) oleamide]	→	→	↓	↓			
CCCCCCCC/C=C\CCCCCCCC(=O)Nc1cccnc1 [Compound 38-1, N-(pyridin-3-yl) oleamide]	↓	→	↓	→			
CCCCCCCC/C=C\CCCCCCCC(=O)Nc1ccncc1 [Compound 39-1, N-(pyridin-4-yl) oleamide]	↓	↓	→	→			
NC(=O)COCCCCOc1ccccc1 [Compound 50-2, 2-(4-phenoxybutoxy) acetamide]	→	→	↓	→			
NC(=O)COCCCOCc1ccccc1 [Compound 51-2, 2-(3-(benzyloxy)propoxy) acetamide]	↓	↓	↓	→			
CCCCCCCC/C=C\CCCCCCCC(N)=O [Ole, 9(Z)-Octadecenamide]	↓	↓	↓	→	blocks activation	suppressor of pro-inflammatory mediators	immunomodulatory effect
CCCCC/C=C\C/C=C\C/C=C\C/C=C\CCCC(N)=O [arachidonamide]							immunomodulatory effect
CCCCC/C=C\C/C=C\CCCCCCCC(N)=O [linoleamide]							immunomodulatory effect
CC/C=C\C/C=C\C/C=C\CCCCCCCC(N)=O [linolenamide]							immunomodulatory effect
CCCCCCCCCCCCCCCC(N)=O [palmitamide]							immunomodulatory effect
CCCCCC/C=C\CCCCCCCC(N)=O [palmitoleamide]							immunomodulatory effect
CCCCCCCCCCCCCCCCCC(N)=O [stearamide]							immunomodulatory effect
